Source: article PMC3904085 (Frontiers in Neuroscience, 2014)

Experiments:
human OX1 receptors [1] = molecular target: T1, human OX1 receptors (Homo sapiens, UniProt O43613); assay: Intracellular calcium mobilization (FLIPR), antagonist mode vs EC70 orexin-A; details: HEK293 cells, mean ± s.e.m. (n)
T1 sequence (O43613 1-425): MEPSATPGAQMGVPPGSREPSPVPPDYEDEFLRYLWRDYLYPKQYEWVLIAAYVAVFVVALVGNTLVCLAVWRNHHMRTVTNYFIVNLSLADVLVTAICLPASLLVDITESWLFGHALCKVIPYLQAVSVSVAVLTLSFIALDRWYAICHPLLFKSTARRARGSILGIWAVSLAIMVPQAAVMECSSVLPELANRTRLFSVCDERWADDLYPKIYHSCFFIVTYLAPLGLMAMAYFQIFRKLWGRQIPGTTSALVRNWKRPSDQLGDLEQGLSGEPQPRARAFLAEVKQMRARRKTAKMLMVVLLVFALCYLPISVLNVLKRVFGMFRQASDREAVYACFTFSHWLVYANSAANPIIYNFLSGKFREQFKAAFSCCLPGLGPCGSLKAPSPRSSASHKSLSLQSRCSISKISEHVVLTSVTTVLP
Method: (§1) Recombinant human OX1 and OX2 receptors were stably expressed in HEK293 cells, or rat recombinant OX1 and OX2 receptors stably expressed in AV12 cells, and assessed for intracellular calcium mobilization using Fluo-3 dye (Molecular Probes, Eugene, OR). […] It was further diluted to 8 mM in 2.5 mM probenecid loading buffer which was made as described below. The human cell line was grown in DMEM/F-12 (3:1) supplemented with 10% FBS (heat-inactivated), 20 mM HEPES, 1% Penn/Strep, and 4 μg/ml Blasticidin (35,000 cells/well). The rat cell line was grown in DMEM supplemented with 10% FBS (heat-inactivated), 20 mM HEPES, 1% Penn/Strep, 4 μg/ml Blasticidin, and 1 mM sodium pyruvate (60,000 cells/well). […] Finally, plates were read on a fluorescence imaging plate reader (FLIPR; Molecular Devices, LLC, Sunnyvale, CA) instrument with a 50 μl addition of antagonist; cells were placed in the dark at room temperature for an additional 15 min; then read on FLIPR instrument with a 100 μl addition of an EC70 concentration of orexin A (for a total volume of 200 μl). […] Kb-values were calculated based on 10-point dilution curves using ActivityBase templates (ID Business Solutions, Ltd., Guildford, Surrey, UK). […]

C57Bl/6 mice = assay: DRL 36-s schedule of reinforcement in wild-type mice; assay type: in vivo, mouse; details: for Lever Presses Mean / Reinforcers Mean: WT mice DRL-36-s, raw data
From the text: The levers in these chambers were mounted on one wall with an adjacent food magazine next to the lever in the middle of the wall. A reinforced response caused a clicker apparatus to activate and the pellet feeder to deposit one 45-mg sucrose pellet (BioServ, Frenchtown, NJ) into the food magazine. The house light, which was mounted on the ceiling, was turned on when the session began, remained on throughout the entire session, and was turned off at the end of the session. Each experimental chamber was enclosed in a melamine sound-attenuating cubicle and equipped with a white noise generator to provide masking noise.
Each mouse was initially trained under a variable time 60-s operant schedule for 5 days, followed by fixed ratio-1 ratio schedule for 5 days. After the mice had acquired lever-pressing behavior, they were trained during daily DRL 6-s sessions for ~1 week, then mice progressed through weekly ascending DRL requirements (12, 18, 24, 30 s) before moving to DRL 36-s sessions. […] Experimental sessions lasted for 45 min and were conducted 5 days/week during light hours.
Drugs were administered to the animals once or twice weekly with at least 1 week between subsequent drugs to minimize possible carryover effects. Drug treatments were administered on Tuesdays and Fridays. No treatments were administered on other test days. Wednesdays were control days. “Control” behavior was calculated as the pooled mean lever presses or reinforcers received during Wednesday sessions across all Wednesdays for the duration of each study. Performance was normalized to percent of control by dividing total responses (or reinforcers) for each drug or vehicle treatment by the mean number of responses (reinforcers) in the respective pooled control condition, multiplied by 100.
The data analyses were conducted on the raw response and reinforcement data. All behavioral data are expressed as the mean ± s.e.m. normalized to the control condition.

human OX1 receptors [2] = molecular target: T1, human OX1 receptors; assay: Radioligand binding, [125I]-Orexin A displacement, HEK293 membranes; parameters: expressed in transfected cells; membranes; details: 90 min, mean ± s.e.m. (n)
Method: Briefly, the membranes were isolated by homogenizing cell pellet in 30 ml (w/v) 50 mM Tris buffer (pH 7.4) containing Roche Complete EDTA free protease tablets. […] All binding studies were conducted at a final volume of 200 μl. […] Then 300 μl of this solution was placed in column B on a Nunc polypropylene 96-well plate (Thermo Fisher Scientific, Inc., Rochester, NY). Serial dilutions were then made using a Biomek 2000 (Beckman Coulter, Inc., Fullerton, CA) from a starting concentration of 40 μM. […] All binding was terminated by rapid filtration using a TOMTEC 96-well cell harvester (Hamden, CT) through GF/A filters that had been presoaked with 0.3% polyethyleneimine. The filters were washed with 5.0 ml ice-cold 50 mM Tris buffer (pH 7.4) and air-dried overnight. […] Protein concentrations were measured using Coomassie Protein Plus Assay Reagent (Pierce, Rockford, IL) and serum albumin standards.

rat OX1 receptors = molecular target: T2, rat OX1 receptors (Rattus norvegicus, UniProt P56718); assay: cell-based
T2 sequence (P56718 1-416): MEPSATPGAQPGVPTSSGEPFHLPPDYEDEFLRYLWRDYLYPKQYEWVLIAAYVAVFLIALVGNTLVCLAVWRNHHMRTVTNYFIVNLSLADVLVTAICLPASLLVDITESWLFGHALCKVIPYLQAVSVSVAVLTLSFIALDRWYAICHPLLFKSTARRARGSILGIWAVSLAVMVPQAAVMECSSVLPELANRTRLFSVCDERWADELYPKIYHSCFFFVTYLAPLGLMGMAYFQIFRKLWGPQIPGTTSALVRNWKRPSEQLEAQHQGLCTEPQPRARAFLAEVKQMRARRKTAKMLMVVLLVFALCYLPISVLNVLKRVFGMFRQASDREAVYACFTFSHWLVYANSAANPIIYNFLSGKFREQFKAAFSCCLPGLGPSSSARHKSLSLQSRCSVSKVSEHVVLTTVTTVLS
Method: as §1

rat OX2 receptors = molecular target: T3, rat OX2 receptors (Rattus norvegicus, UniProt P56719); assay: cell-based
T3 sequence (P56719 1-460): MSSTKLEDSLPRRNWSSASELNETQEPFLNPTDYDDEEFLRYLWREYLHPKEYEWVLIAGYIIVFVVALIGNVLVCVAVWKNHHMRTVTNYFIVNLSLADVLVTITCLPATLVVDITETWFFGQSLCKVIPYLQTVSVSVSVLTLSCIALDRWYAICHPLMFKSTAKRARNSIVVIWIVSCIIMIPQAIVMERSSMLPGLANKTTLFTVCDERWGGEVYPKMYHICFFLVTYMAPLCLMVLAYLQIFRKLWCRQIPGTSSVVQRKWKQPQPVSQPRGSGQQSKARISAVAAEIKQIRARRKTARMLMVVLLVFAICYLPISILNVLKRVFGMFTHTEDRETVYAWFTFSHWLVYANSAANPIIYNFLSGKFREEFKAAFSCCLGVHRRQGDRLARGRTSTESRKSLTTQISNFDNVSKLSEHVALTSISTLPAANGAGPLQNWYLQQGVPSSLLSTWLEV

[3] = dose 100 mg/kg, listed as almorexant inactive
[4] = C57Bl/6 mice DRL-36-s, significant at 100 mg/kg (Figure 5B legend)

Row | Compound | Functional antagonist activity, Kb hOX1 (human OX1 receptors [1]) | Effect on DRL behavior, in words (C57Bl/6 mice; C57Bl/6 mice DRL-36-s, 100 mg/kg) | Lever Presses Mean (C57Bl/6 mice; [3]) | Reinforcers Mean (C57Bl/6 mice; [3]) | Receptor binding affinity, Ki OX1 (human OX1 receptors [2]) | Lever presses emitted (C57Bl/6 mice; [4]) | Reinforcers received (C57Bl/6 mice; [4]) | Lever Presses Mean (C57Bl/6 mice; dose 10 mg/kg) | Reinforcers Mean (C57Bl/6 mice; dose 10 mg/kg) | Lever Presses Mean (C57Bl/6 mice; dose 20 mg/kg) | Reinforcers Mean (C57Bl/6 mice; dose 20 mg/kg) | Lever Presses Mean (C57Bl/6 mice; dose 40 mg/kg) | Reinforcers Mean (C57Bl/6 mice; dose 40 mg/kg) | Lever Presses Mean (C57Bl/6 mice; dose 100 mg/kg) | Reinforcers Mean (C57Bl/6 mice; dose 100 mg/kg) | Kb (rat OX1 receptors) [nM] | Kb (rat OX2 receptors) [nM]
1 | CNC(=O)[C@@H](c1ccccc1)N1CCc2cc(OC)c(OC)cc2[C@@H]1CCc1ccc(C(F)(F)F)cc1 [Almorexant (R)] | inactive | no significant effects on behavior | 233.00 | 11.00 | inactive | – | – | – | – | – | – | – | – | – | – | – | –
2 | CNC(=O)[C@@H](c1ccccc1)N1CCc2cc(OC)c(OC)cc2[C@@H]1CCc1ccc(C(F)(F)F)cc1 [Almorexant (S)] | – | – | – | – | – | 47 % of control | > 400 % of control | 174.25 | 14.00 | 161.13 | 15.50 | 172.38 | 20.25 | 114.88 | 27.13 | 3.2 ± 0.7 | 4.4 ± 1.6
